Experimental data reported in PubChem BioAssay AID1996.
≈ marks a conversion by molar mass, not a printed value.

settings: buffer; pH 7.4; 200.0 µM

solubility kinetic [µg/mL]	Structure (SMILES)
> 48.9	COc1ccc(Cl)cc1C(=O)OCC(=O)N1CCCC(C)C1 (centres undefined)
5.7 (≈ 21.4 µM)	CC1SC(=S)N(c2ccc(N(C)C)cc2)C1=O (centres undefined)
> 44.9	Cc1cc(C(=O)NCc2csc(-c3ccccc3)n2)no1
11.2 (≈ 34 µM)	Cc1ccc(CNC(=O)C(CC(C)C)OC(=O)c2ccco2)cc1 (centres undefined)
< 0.4	COc1cc(/C=C/c2noc(-c3ccccc3O)n2)ccc1OC(C)=O
34.8 (≈ 142 µM)	Cc1cccc(NC(=O)c2ccco2)c1C(=O)O
> 45.5	Cc1nn(CCCC(=O)Nc2ccccn2)c(C)c1[N+](=O)[O-]
> 50.8	Cc1ccc(S(=O)(=O)NCCCC(=O)N2CCC(C)CC2)cc1
24.2 (≈ 69.3 µM)	Cn1c(N)c(C(=O)COC(=O)Cc2ccccc2F)c(=O)n(C)c1=O
1.9 (≈ 7.19 µM)	CCOC(=O)c1c(N)c2cc([N+](=O)[O-])cnc2n1C
15.6 (≈ 39.5 µM)	COC(=O)c1cc(OC)c(OC)cc1NC(=O)CSCc1c(C)noc1C
38.2	CC1(C)CC(=O)C=C(Nc2ccccc2C#N)C1.Cl
> 52.9	O=C(COc1ccc(S(=O)(=O)N2CCCCC2)cc1)N1CCCC1
39.1 (≈ 124 µM)	COc1ccccc1OCC(=O)Nc1ccc2c(c1)OCCO2
44.3 (≈ 141 µM)	COc1cc2c(cc1OC)CN(CC(O)c1ccccc1)CC2 (centres undefined)
> 44.9	O=C(O)c1cc(-c2cccc3ccccc23)nc2ccccc12
36.4 (≈ 114 µM)	CCC(=O)OCC(=O)N=c1sccn1Cc1ccc(C)cc1
5.7 (≈ 20.2 µM)	Cc1cccc(NC(=O)CC(=O)Nc2cccc(C)c2)c1
> 53.6	CC(=O)c1ccc(NC(=O)COC(=O)C2C3CC4OC(=O)C2C4C3)cc1 (centres undefined)

solubility kinetic [µg/mL]	Structure (SMILES)
1 (≈ 3.79 µM)	Clc1ccc(N=c2ssnc2Cl)nc1
2.4 (≈ 8.74 µM)	CN(C)/C=C1/OC(=O)C(C#N)=C1c1ccc(Cl)cc1
23.1 (≈ 117 µM)	Cc1ccc(Nc2ccccc2N)cc1
> 48.1	COc1ccccc1C(=O)OCC(=O)NC(=O)NC1CCCC1
> 45.4	COc1ccccc1-c1nc2ccc(Cl)cc2c(=O)n1O
59.7 (≈ 149 µM)	O=C(Nc1ccc(F)cc1F)c1ccccc1NC(=O)C1CC=CCC1C(=O)O (centres undefined)
27.8 (≈ 96.1 µM)	Cc1ccc(SCCNC(=O)c2ccccc2F)cc1
> 44.8	Cc1onc(-c2c(F)cccc2Cl)c1C(=O)NCCO
39.5 (≈ 113 µM)	Cc1cc(N/C=C(\C#N)S(=O)(=O)c2ccccc2Cl)nc(C)n1
> 47.5	C=CCNC(=O)C(C)N1c2cccc3cccc(c23)S1(=O)=O (centres undefined)
39.7 (≈ 118 µM)	CCC(=Nc1ccccc1O)C1=C(O)CC(c2ccccc2)CC1=O (centres undefined)
4.4 (≈ 13.2 µM)	O=[N+]([O-])c1ccc(S(=O)(=O)c2cccc(C(F)(F)F)c2)nc1
3.6 (≈ 9.61 µM)	Cc1ccc(NC(=O)COC(=O)C2(CC(=O)NC(C)C)CCCC2)cc1C
> 40.1	Cc1oc(CC(C)C)cc1C(=O)NCCCC(=O)O
> 57.4	COc1cccc(CNC(=O)CCCC(=O)NC(C)CCc2ccccc2)c1 (centres undefined)
4 (≈ 13.2 µM)	Cc1cc(NC(=O)C(C)Oc2ccc(C(C)(C)C)cc2)no1 (centres undefined)
> 49.2	CN(C)CCOC(=O)C(c1ccccc1)C1(O)CCCC1.Cl (centres undefined)
< 0.6	Cc1ccc2oc(C(=O)NCc3ccccc3)cc(=O)c2c1
> 30.5	Cc1nc(SCCO)c([N+](=O)[O-])[nH]1

solubility kinetic [µg/mL]	Structure (SMILES)
28 (≈ 138 µM)	Cc1ccc(N2C(=O)CCC2=O)c(C)c1
6.8 (≈ 20.6 µM)	CC(=O)Nc1ccc(S(=O)(=O)NC2Cc3ccccc3C2)cc1
7.8 (≈ 28.6 µM)	O=C(Nc1ccc2c(c1)CCC2)c1ccc(Cl)nc1
< 0.4	O=C(NC(=O)c1c(F)cccc1F)Nc1ccccc1SC(F)F
> 45.9	O=C(CN1CCCCC1)NNC(=O)c1ccc([N+](=O)[O-])cc1
> 44.5	CCN(CC)C(=O)c1ccccc1NC(=O)c1ccccc1
> 44.9	COCC(=O)OCC(=O)Nc1ccccc1-c1ccccc1
7.7 (≈ 23.8 µM)	Cc1ccccc1-c1noc(CNC(=O)COc2ccccc2)n1
> 55.3	CCCCN(C)CCNC(=O)c1cn(C)c(=O)c2c1c1ccccc1n2C
> 76.8	Cc1c(NS(=O)(=O)c2cc(C(=O)NCc3cccnc3)ccc2Cl)c(=O)n(-c2ccccc2)n1C
39.7 (≈ 132 µM)	CC1C(=O)N2CCCc3cc(NC(=O)CC(C)(C)C)cc1c32 (centres undefined)
34.8 (≈ 103 µM)	CCOc1ccc(NC(=O)CN2C(=O)C(C)SC(C)C2=O)cc1 (centres undefined)
30.4 (≈ 110 µM)	COc1ccc(OC)c(NC(=O)Cc2cccs2)c1
29.9 (≈ 110 µM)	CC[C@@H](Nc1ncnc2c1oc1ccccc12)C(=O)O
> 41.4	O=C(c1ccc(Cl)cc1Cl)N1CCSCC1
> 46.9	Cn1ncc2c(NCc3ccccc3)nc(NCCCO)nc21
16.5 (≈ 31.2 µM)	Cc1ccc(S(=O)(=O)N2CCN(C(=O)COC(=O)CNC(=O)c3ccc(C(C)(C)C)cc3)CC2)c(C)c1
> 40.2	Cc1cc(O)c(Sc2ccc(Cl)cc2)c(=O)[nH]1
19 (≈ 55.3 µM)	Cc1cc(OC(=O)c2ccccc2Cl)ccc1N1C(=O)CCC1=O

Structure (SMILES)	solubility kinetic [µg/mL]
O=c1c2ccccc2nc(/C=C/c2ccc(F)cc2)n1-c1ccccc1O	5.2 (≈ 14.5 µM)
Cl.Nc1ccc(CCN2CCCC2)cc1	34.7
